Test results as given in ChEMBL document CHEMBL1142052, “Isosteric ramatroban analogs: selective and potent CRTH-2 antagonists” (Bioorg Med Chem Lett, 2005).

Assays:
[1] = target: T1, Prostaglandin D2 receptor 2 (Homo sapiens, UniProt Q9Y5Y4); test: Inhibitory activity for binding of PGD-2 to CRTH-2 in hCRTH-2 binding assay using HEK293 cell membranes
T1 sequence (Q9Y5Y4 whole entry): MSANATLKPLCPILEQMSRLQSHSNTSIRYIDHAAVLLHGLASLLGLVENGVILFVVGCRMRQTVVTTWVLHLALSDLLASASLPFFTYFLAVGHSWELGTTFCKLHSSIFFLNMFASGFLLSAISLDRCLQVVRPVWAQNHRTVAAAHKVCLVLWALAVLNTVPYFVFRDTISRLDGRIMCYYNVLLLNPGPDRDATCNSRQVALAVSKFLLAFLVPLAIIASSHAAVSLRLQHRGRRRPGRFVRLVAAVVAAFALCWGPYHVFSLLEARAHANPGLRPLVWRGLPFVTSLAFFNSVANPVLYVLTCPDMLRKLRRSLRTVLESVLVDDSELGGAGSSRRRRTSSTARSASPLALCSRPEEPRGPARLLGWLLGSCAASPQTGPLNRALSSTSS

[2] = target: T2, Thromboxane A2 receptor (Homo sapiens, UniProt P21731); test: Inhibitory activity for binding of PGD-2 in hTP binding assay using HEK293 cell membranes
T2 sequence (P21731 whole entry): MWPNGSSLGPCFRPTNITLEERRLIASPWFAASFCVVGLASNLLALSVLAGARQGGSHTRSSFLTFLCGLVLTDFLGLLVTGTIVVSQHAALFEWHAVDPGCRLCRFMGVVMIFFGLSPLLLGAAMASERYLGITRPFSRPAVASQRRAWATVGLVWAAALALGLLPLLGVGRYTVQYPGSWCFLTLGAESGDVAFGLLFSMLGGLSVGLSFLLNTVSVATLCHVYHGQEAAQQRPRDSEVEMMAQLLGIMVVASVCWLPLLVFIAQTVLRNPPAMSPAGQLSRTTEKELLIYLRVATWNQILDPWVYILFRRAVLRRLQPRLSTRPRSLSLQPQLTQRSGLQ

[3] = target: T1, Prostaglandin D2 receptor 2; test: Inhibitory concentration for PGD2-mediated receptor activation in a fluorescence assay that measures changes in intracellular calcium; assay type: functional, cell-based
[4] = target: T3, Thromboxane A2 receptor (Homo sapiens) (UniProt P21731); test: Percentage inhibition for binding of PGD-2 in hTP binding assay using HEK293 cell membranes; details: concentration not given here
T3 sequence (whole entry): T2 sequence (P21731 whole entry)

[5] = target: T1, Prostaglandin D2 receptor 2; test: Inhibitory activity against CRTH-2 in hCRTH-2 binding assay using HEK293 cell membranes
[6] = target: T1, Prostaglandin D2 receptor 2; test: = for PGD2-mediated receptor activation in a fluorescence assay that measures changes in intracellular calcium
[7] = target: T2, Thromboxane A2 receptor; test: Inhibitory activity for binding of PGD-2 to hTP in hTP binding assay using HEK293 cell membranes

SMILES | Ki [1] | further results
O=C(O)CCn1c2c(c3cc(NS(=O)(=O)c4ccc(F)c(Cl)c4)ccc31)CCCC2 | 1.7 µM | –
O=C(O)CCn1c2c(c3cc(NS(=O)(=O)c4cccc(F)c4)ccc31)CCCC2 | 1.3 µM | –
O=C(O)CCn1c2c(c3cc(NS(=O)(=O)c4ccc(Cl)cc4)ccc31)CCCC2 | 3 µM | –
CCC(C(=O)O)n1c2c(c3cc(NS(=O)(=O)c4ccc(F)cc4)ccc31)CCCC2 (configuration not stated) | 18 µM | –
CC(CC(=O)O)n1c2c(c3cc(NS(=O)(=O)c4ccc(F)cc4)ccc31)CCCC2 (configuration not stated) | > 50 µM | –
CC1CCc2c(c3cc(NS(=O)(=O)c4ccc(F)cc4)ccc3n2CC(=O)O)C1 (configuration not stated) | – | Ki [2]: > 20 µM; IC50 [3]: 0.0097 µM; inhibition [4]: 30%
O=C(O)CCn1c2c(c3cc(NS(=O)(=O)c4ccc(F)c(F)c4)ccc31)CCCC2 | 4.2 µM | –
O=C(O)CCn1c2c(c3cc(NS(=O)(=O)c4ccc(F)cc4F)ccc31)CCCC2 | 3.6 µM | –
CC(Cn1c2c(c3cc(NS(=O)(=O)c4ccc(F)cc4)ccc31)CCCC2)C(=O)O (configuration not stated) | > 50 µM | –
O=C(O)CCCCn1c2c(c3cc(NS(=O)(=O)c4ccc(F)cc4)ccc31)CCCC2 | 4.6 µM | –
O=S(=O)(O)CCn1c2c(c3cc(NS(=O)(=O)c4ccc(F)cc4)ccc31)CCCC2 | 2.4 µM | –
O=C(O)c1cccc(-n2c3c(c4cc(NS(=O)(=O)c5ccc(F)cc5)ccc42)CCCC3)c1 | 27 µM | –
Cc1ccc(S(=O)(=O)Nc2ccc3c(c2)c2c(n3CCC(=O)O)CCCC2)cc1 | 3.2 µM | –
O=C(O)/C=C\n1c2c(c3cc(NS(=O)(=O)c4ccc(F)cc4)ccc31)CCCC2 | 19 µM | –
O=C(O)CCn1c2c(c3cc(NS(=O)(=O)c4ccc(-c5ccccc5)cc4)ccc31)CCCC2 | 3.3 µM | –
O=C(O)CCn1c2c(c3cc(NS(=O)(=O)c4ccc(F)cc4)ccc31)CCCC2 | 0.25 µM | Ki [2]: 1.5 µM; Ki [5]: 0.25 µM
Cc1cccc(S(=O)(=O)Nc2ccc3c(c2)c2c(n3CCC(=O)O)CCCC2)c1 | 4.2 µM | –
O=C(O)CCn1c2c(c3ccccc31)C[C@H](NS(=O)(=O)c1ccc(F)cc1)CC2 [RAMATROBAN] | 0.29 µM | Ki [2]: 0.018 µM; IC50 [6]: 0.34 µM; inhibition [4]: 98%
O=C(O)CCn1c2c(c3cc(NS(=O)(=O)c4ccc(O)cc4)ccc31)CCCC2 | 7.4 µM | –
CCCS(=O)(=O)Nc1ccc2c(c1)c1c(n2CCC(=O)O)CCCC1 | > 50 µM | –
CC(C(=O)O)n1c2c(c3cc(NS(=O)(=O)c4ccc(F)cc4)ccc31)CCCC2 (configuration not stated) | 4.4 µM | –

SMILES | Ki [1] | further results
COc1ccc(S(=O)(=O)Nc2ccc3c(c2)c2c(n3CCC(=O)O)CCCC2)cc1 | 2.1 µM | –
O=C(O)CN1c2ccc(NS(=O)(=O)c3ccc(F)cc3)cc2C2CCCCCC21 (configuration not stated) | – | Ki [2]: > 20 µM; IC50 [3]: 0.022 µM
O=C(O)CCn1c2c(c3cc(NS(=O)(=O)c4ccccc4)ccc31)CCCC2 | 1.2 µM | –
O=C(O)CCn1c2c(c3cc(NS(=O)(=O)c4ccc5ccccc5c4)ccc31)CCCC2 | 7.4 µM | –
Cc1ccccc1S(=O)(=O)Nc1ccc2c(c1)c1c(n2CCC(=O)O)CCCC1 | > 50 µM | –
O=C(O)CCCn1c2c(c3cc(NS(=O)(=O)c4ccc(F)cc4)ccc31)CCCC2 | 8.3 µM | –
CC(C)(C)C1CCc2c(c3cc(NS(=O)(=O)c4ccc(F)cc4)ccc3n2CC(=O)O)C1 (configuration not stated) | – | IC50 [3]: 0.12 µM
O=C(O)Cn1c2c(c3cc(NS(=O)(=O)c4ccc(F)cc4)ccc31)CCC2 | – | IC50 [3]: 0.13 µM
O=C(O)CCn1c2c(c3cc(NCc4ccccc4)ccc31)CCCC2 | 17 µM | –
O=C(O)Cn1c2c(c3cc(NS(=O)(=O)c4ccc(F)cc4)ccc31)CC(c1ccccc1)CC2 (configuration not stated) | – | Ki [2]: > 20 µM; IC50 [3]: 0.022 µM; inhibition [4]: 66%
O=C(O)CCn1c2c(c3cc(NC(=O)c4ccccc4)ccc31)CCCC2 | > 50 µM | –
O=C(O)CCn1c2c(c3cc(NS(=O)(=O)c4cccs4)ccc31)CCCC2 | 7.6 µM | –
O=C(O)CCn1c2c(c3cc(NC(=O)Nc4ccccc4)ccc31)CCCC2 | > 50 µM | –
Nc1ccc2c(c1)c1c(n2CCC(=O)O)CCCC1 | > 50 µM | –
O=C(O)c1ccc(-n2c3c(c4cc(NS(=O)(=O)c5ccc(F)cc5)ccc42)CCCC3)cc1 | 6.4 µM | –
O=C(O)Cn1c2c(c3cc(NS(=O)(=O)c4ccc(F)cc4)ccc31)CCCC2 | 0.03 µM | Ki [7]: > 20 µM
O=P(O)(O)CCn1c2c(c3cc(NS(=O)(=O)c4ccc(F)cc4)ccc31)CCCC2 | > 50 µM | –
O=C(O)CCn1c2c(c3cc(NS(=O)(=O)c4ccccc4F)ccc31)CCCC2 | 0.97 µM | –
O=C(O)c1ccccc1-n1c2c(c3cc(NS(=O)(=O)c4ccc(F)cc4)ccc31)CCCC2 | 33 µM | –
O=C(O)CCn1c2c(c3cc(NS(=O)(=O)c4ccc(Oc5ccccc5)cc4)ccc31)CCCC2 | 7.5 µM | –
